In brackets after ≈: the same amount, converted by molar mass. Read-outs that look alike come from different tables or passages of the source.
Tests used:
[1] = test system: S. aureus ATCC 29213; test: Broth microdilution MIC (Example 12), ATCC QC organism; details: ATCC QC organism (Table 102)
[2] = test system: vancomycin-intermediate Staphylococcus aureus (VISA); test: Broth microdilution MIC (Example 12); assay type: cell-based
[3] = test system: S. aureus ATCC 29213; details: CLSI established QC range; cited from earlier work
[4] = test system: Candida krusei; test: Antifungal broth microdilution (Example 13); assay type: cell-based; details: C. krusei ATCC 6258, comparators, single value
[5] = test system: E. coli ATCC 25922; test: MIC control strain; details: QC organism, Example 13
[6] = test system: Candida spp.; test: Broth microdilution MIC (Example 11); assay type: cell-based, C. parapsilosis, C. albicans, C. glabrata, C. tropicalis; details: read-out: MIC
[7] = test system: fungal pathogens; test: Antifungal activity, NIH/NIAID sponsored study; assay type: cell-based; details: 50% endpoint
[8] = test system: Candida krusei; details: C. krusei ATCC 6258, CLSI established QC range, cited from earlier work
[9] = test system: Aspergillus spp.; test: Antifungal broth microdilution (Example 13); assay type: cell-based, A. niger, A. terreus, A. fumigatus, A. flavus
[10] = test system: Candida spp.; details: C. parapsilosis MMX 2323 (ATCC 22019), cited from earlier work
[11] = test system: S. aureus ATCC 29213; test: MIC control strain; details: QC organism, Example 13
[12] = test system: C. parapsilosis ATCC 22019; details: C. parapsilosis ATCC 22019, CLSI established QC range, cited from earlier work
[13] = test system: C. parapsilosis ATCC 22019; test: Antifungal broth microdilution (Example 13), QC organism; assay type: cell-based, Candida parapsilosis; details: 24 hr, comparators, single value
[14] = test system: Gram-positive aerobic bacteria (S. aureus, MRSA, CA-MRSA); test: MIC90 against 150 clinical isolates of Gram-positive aerobic bacteria; assay type: cell-based; details: S. aureus (50 isolates)

CCC[C@@H]1C[C@@H](C(=O)N[C@@H]([C@H]2O[C@H](SC)[C@H](O)[C@@H](O)[C@H]2O)[C@H](C)Cl)N(C)C1 [CLI]
MIC [1]: 0.25 µg/mL (≈ 0.588 µM)
MIC ([2]; S. aureus NRS 1 (hVISA)): >8 µg/mL
MIC ([2]; S. aureus NRS 2): >8 µg/mL
MIC ([2]; S. aureus NRS 3): >8 µg/mL
MIC ([2]; S. aureus NRS 4): >8 µg/mL
MIC ([2]; S. aureus NRS 13): 0.06 µg/mL (≈ 0.141 µM)
MIC ([2]; S. aureus NRS 18): >8 µg/mL
MIC ([2]; S. aureus NRS 22): >8 µg/mL
MIC ([2]; S. aureus NRS 24 (hVISA)): >8 µg/mL
MIC ([2]; S. aureus NRS 27): >8 µg/mL
QC range of MIC [3]: (0.06-0.25) μg/mL

OC(Cn1cncn1)(Cn1cncn1)c1ccc(F)cc1F [Fluconazole]
MIC 24 hr ([4]; 24 hr): 16 µg/mL (≈ 52.2 µM)
MIC 48 hr ([4]; 48 hr): 32 µg/mL (≈ 104 µM)
MIC 24 hr [5]: >64
MIC ([6]; 24 h, C. albicans MMX 7039, Sensitive, incubation 24 hr): 0.5 µg/mL (≈ 1.63 µM)
MIC ([6]; 24 h, C. glabrata MMX 7318, FLU^R, incubation 24 hr): > 64 µg/mL
MIC ([6]; 24 h, C. parapsilosis MMX 2323 (ATCC 22019), QC, incubation 24 hr): 2 µg/mL (≈ 6.53 µM)
MIC ([6]; 24 h, C. parapsilosis MMX 7370, FLU^R, incubation 24 hr): 32 µg/mL (≈ 104 µM)
MIC ([6]; 24 h, C. tropicalis MMX 7247, FLU^R, incubation 24 hr): 64 µg/mL (≈ 209 µM)
MIC ([6]; 24 h, C. tropicalis MMX 7360, FLU^R, incubation 24 hr): 64 µg/mL (≈ 209 µM)
MIC ([6]; 48 h, C. albicans MMX 7039, Sensitive, incubation 48 hr): 0.5 µg/mL (≈ 1.63 µM)
MIC ([6]; 48 h, C. albicans MMX 7055, Sensitive, incubation 48 hr): 0.5 µg/mL (≈ 1.63 µM)
MIC ([6]; 48 h, C. glabrata MMX 7318, FLU^R, incubation 48 hr): > 64 µg/mL
MIC ([6]; 48 h, C. glabrata miX 7086, FLU^R, incubation 48 hr): 64 µg/mL (≈ 209 µM)
MIC ([6]; 48 h, C. parapsilosis MMX 2323 (ATCC 22019), QC, incubation 48 hr): 2 µg/mL (≈ 6.53 µM)
MIC ([6]; 48 h, C. parapsilosis MMX 7555, FLU^R, incubation 48 hr): 64 µg/mL (≈ 209 µM)
MIC ([6]; 48 h, C. tropicalis MMX 7247, FLU^R, incubation 48 hr): > 64 µg/mL
MIC ([6]; 48 h, C. tropicalis MMX 7248, FLU^R, incubation 48 hr): > 64 µg/mL
MIC ([6]; 48 h, C. tropicalis MMX 7360, FLU^R, incubation 48 hr): > 64 µg/mL
MIC50 ([7]; Candida albicans, read-out: Antifungal activity, MIC 50%, C. albicans CA1): ≤ 0.125 µg/mL
MIC50 ([7]; Candida albicans, read-out: Antifungal activity, MIC 50%, C. albicans CA2): ≤ 0.125 µg/mL
MIC50 ([7]; Candida albicans, read-out: Antifungal activity, MIC 50%, C. albicans CA3): > 64 µg/mL
MIC50 ([7]; Candidozyma auris, read-out: Antifungal activity, MIC 50%, C. auris Cau1): > 64 µg/mL
MIC50 ([7]; Candidozyma auris, read-out: Antifungal activity, MIC 50%, C. auris Cau2): 2 µg/mL (≈ 6.53 µM)
MIC50 ([7]; Candidozyma auris, read-out: Antifungal activity, MIC 50%, C. auris Cau3): > 64 µg/mL
MIC50 ([7]; Cryptococcus neoformans, read-out: Antifungal activity, MIC 50%, C. neoformans CN1): 64 µg/mL (≈ 209 µM)
MIC50 ([7]; Cryptococcus neoformans, read-out: Antifungal activity, MIC 50%, C. neoformans CN2): 64 µg/mL (≈ 209 µM)
MIC50 ([7]; Cryptococcus neoformans, read-out: Antifungal activity, MIC 50%, C. neoformans CN3): 2 µg/mL (≈ 6.53 µM)
MIC50 ([7]; Lodderomyces parapsilosis, ATCC22019, read-out: Antifungal activity, MIC 50%, C. parapsilosis ATCC22019): 1 µg/mL (≈ 3.27 µM)
MIC50 ([7]; Pichia kudriavzevii, ATCC6258, read-out: Antifungal activity, MIC 50%, C. krusei ATCC6258): 16 µg/mL (≈ 52.2 µM)
QC Range 24 hr ([8]; 24 hr): 8-64
QC Range 48 hr ([8]; 48 hr): 16-128
MIC 24 hr ([9]; A. flavus ATCC 204304): > 64 µg/mL
MIC 48 hr ([9]; A. flavus ATCC 204304): > 64 µg/mL
MIC 24 hr ([9]; A. fumigatus ATCC MYA-3626): > 64 µg/mL
MIC 48 hr ([9]; A. fumigatus ATCC MYA-3626): > 64 µg/mL
CLSI QC range of MIC ([10]; 24 hr): 0.5 to 4 µg/mL
CLSI QC range of MIC ([10]; 48 hr): 1 to 4 µg/mL
MIC 24 hr [11]: >64
QC Range 24 hr ([12]; 24 hr): 0.5-4
QC Range 48 hr ([12]; 48 hr): 1-4
MIC 24 hr [13]: 1 µg/mL (≈ 3.27 µM)

CC(=O)NC[C@H]1CN(c2ccc(N3CCOCC3)c(F)c2)C(=O)O1 [LZD]
MIC90 ([14]; CA-MRSA): 4 µg/mL (≈ 11.9 µM)
MIC90 ([14]; MRSA): 4 µg/mL (≈ 11.9 µM)
MIC90 ([14]; MSSA): 4 µg/mL (≈ 11.9 µM)
MIC [1]: 4 µg/mL (≈ 11.9 µM)
MIC ([2]; S. aureus NRS 1 (hVISA)): 1 µg/mL (≈ 2.96 µM)
MIC ([2]; S. aureus NRS 2): 4 µg/mL (≈ 11.9 µM)
MIC ([2]; S. aureus NRS 3): 1 µg/mL (≈ 2.96 µM)
MIC ([2]; S. aureus NRS 4): 1 µg/mL (≈ 2.96 µM)
MIC ([2]; S. aureus NRS 13): 2 µg/mL (≈ 5.93 µM)
MIC ([2]; S. aureus NRS 18): 1 µg/mL (≈ 2.96 µM)
MIC ([2]; S. aureus NRS 22): 1 µg/mL (≈ 2.96 µM)
MIC ([2]; S. aureus NRS 24 (hVISA)): 2 µg/mL (≈ 5.93 µM)
MIC ([2]; S. aureus NRS 27): 2 µg/mL (≈ 5.93 µM)
QC range of MIC [3]: (1-4) μg/mL

CN[C@H](CC(C)C)C(=O)N[C@H]1C(=O)N[C@@H](CC(N)=O)C(=O)N[C@H]2C(=O)N[C@H]3C(=O)N[C@H](C(=O)N[C@H](C(=O)O)c4cc(O)cc(O)c4-c4cc3ccc4O)[C@H](O)c3ccc(c(Cl)c3)Oc3cc2cc(c3O[C@@H]2O[C@H](CO)[C@@H](O)[C@H](O)[C@H]2O[C@H]2C[C@](C)(N)[C@H](O)[C@H](C)O2)Oc2ccc(cc2Cl)[C@H]1O [VAN]
MIC90 ([14]; CA-MRSA): 1 µg/mL (≈ 0.69 µM)
MIC90 ([14]; MRSA): 2 µg/mL (≈ 1.38 µM)
MIC90 ([14]; MSSA): 1 µg/mL (≈ 0.69 µM)
MIC [1]: 0.5 µg/mL (≈ 0.345 µM)
MIC ([2]; S. aureus NRS 1 (hVISA)): 4 µg/mL (≈ 2.76 µM)
MIC ([2]; S. aureus NRS 2): 0.5 µg/mL (≈ 0.345 µM)
MIC ([2]; S. aureus NRS 3): 8 µg/mL (≈ 5.52 µM)
MIC ([2]; S. aureus NRS 4): 4 µg/mL (≈ 2.76 µM)
MIC ([2]; S. aureus NRS 13): 2 µg/mL (≈ 1.38 µM)
MIC ([2]; S. aureus NRS 18): 4 µg/mL (≈ 2.76 µM)
MIC ([2]; S. aureus NRS 22): 4 µg/mL (≈ 2.76 µM)
MIC ([2]; S. aureus NRS 24 (hVISA)): 2 µg/mL (≈ 1.38 µM)
MIC ([2]; S. aureus NRS 27): 2 µg/mL (≈ 1.38 µM)
QC range of MIC [3]: (0.5-2) μg/mL

Source: patent US20230124862A1, “BISMUTH THIOL COMPOUNDS AND COMPOSITIONS AND METHODS OF TREATING MICROBIAL CO-INFECTIONS” (Microbion Corporation, priority 2020, published 2023)
